Source: ChEMBL document CHEMBL5338817, “Discovery of Exceptionally Potent, Selective, and Efficacious PROTAC Degraders of CBP and p300 Proteins” (J Med Chem, 2023)

Tests used:
RS4-11 [1] = assay: Cytotoxicity against human RS4-11 cells assessed as maximum inhibition of cell growth incubated for 4 days by cellTiter-Glo assay relative to control; format: functional; details: time 4 day
RS4-11 [2] = assay: Cytotoxicity against human RS4-11 cells assessed as inhibition of cell growth incubated for 4 days by cellTiter-Glo assay; format: functional, cell-based; details: RS4-11, 96 h
[3] = target: T1, Histone acetyltransferase p300 (Homo sapiens, UniProt Q09472); assay: Induction of p300 degradation in human RS4-11 cells incubated for 4 hrs by Western blot assay; format: cell-based; details: for DC50: rs4-11
CREB-binding protein [4] = target: T2, CREB-binding protein (Homo sapiens, UniProt Q92793); assay: Induction of CBP degradation in human RS4-11 cells incubated for 4 hrs by Western blot assay; format: cell-based
Target sequence in this assay (Q92793 whole entry): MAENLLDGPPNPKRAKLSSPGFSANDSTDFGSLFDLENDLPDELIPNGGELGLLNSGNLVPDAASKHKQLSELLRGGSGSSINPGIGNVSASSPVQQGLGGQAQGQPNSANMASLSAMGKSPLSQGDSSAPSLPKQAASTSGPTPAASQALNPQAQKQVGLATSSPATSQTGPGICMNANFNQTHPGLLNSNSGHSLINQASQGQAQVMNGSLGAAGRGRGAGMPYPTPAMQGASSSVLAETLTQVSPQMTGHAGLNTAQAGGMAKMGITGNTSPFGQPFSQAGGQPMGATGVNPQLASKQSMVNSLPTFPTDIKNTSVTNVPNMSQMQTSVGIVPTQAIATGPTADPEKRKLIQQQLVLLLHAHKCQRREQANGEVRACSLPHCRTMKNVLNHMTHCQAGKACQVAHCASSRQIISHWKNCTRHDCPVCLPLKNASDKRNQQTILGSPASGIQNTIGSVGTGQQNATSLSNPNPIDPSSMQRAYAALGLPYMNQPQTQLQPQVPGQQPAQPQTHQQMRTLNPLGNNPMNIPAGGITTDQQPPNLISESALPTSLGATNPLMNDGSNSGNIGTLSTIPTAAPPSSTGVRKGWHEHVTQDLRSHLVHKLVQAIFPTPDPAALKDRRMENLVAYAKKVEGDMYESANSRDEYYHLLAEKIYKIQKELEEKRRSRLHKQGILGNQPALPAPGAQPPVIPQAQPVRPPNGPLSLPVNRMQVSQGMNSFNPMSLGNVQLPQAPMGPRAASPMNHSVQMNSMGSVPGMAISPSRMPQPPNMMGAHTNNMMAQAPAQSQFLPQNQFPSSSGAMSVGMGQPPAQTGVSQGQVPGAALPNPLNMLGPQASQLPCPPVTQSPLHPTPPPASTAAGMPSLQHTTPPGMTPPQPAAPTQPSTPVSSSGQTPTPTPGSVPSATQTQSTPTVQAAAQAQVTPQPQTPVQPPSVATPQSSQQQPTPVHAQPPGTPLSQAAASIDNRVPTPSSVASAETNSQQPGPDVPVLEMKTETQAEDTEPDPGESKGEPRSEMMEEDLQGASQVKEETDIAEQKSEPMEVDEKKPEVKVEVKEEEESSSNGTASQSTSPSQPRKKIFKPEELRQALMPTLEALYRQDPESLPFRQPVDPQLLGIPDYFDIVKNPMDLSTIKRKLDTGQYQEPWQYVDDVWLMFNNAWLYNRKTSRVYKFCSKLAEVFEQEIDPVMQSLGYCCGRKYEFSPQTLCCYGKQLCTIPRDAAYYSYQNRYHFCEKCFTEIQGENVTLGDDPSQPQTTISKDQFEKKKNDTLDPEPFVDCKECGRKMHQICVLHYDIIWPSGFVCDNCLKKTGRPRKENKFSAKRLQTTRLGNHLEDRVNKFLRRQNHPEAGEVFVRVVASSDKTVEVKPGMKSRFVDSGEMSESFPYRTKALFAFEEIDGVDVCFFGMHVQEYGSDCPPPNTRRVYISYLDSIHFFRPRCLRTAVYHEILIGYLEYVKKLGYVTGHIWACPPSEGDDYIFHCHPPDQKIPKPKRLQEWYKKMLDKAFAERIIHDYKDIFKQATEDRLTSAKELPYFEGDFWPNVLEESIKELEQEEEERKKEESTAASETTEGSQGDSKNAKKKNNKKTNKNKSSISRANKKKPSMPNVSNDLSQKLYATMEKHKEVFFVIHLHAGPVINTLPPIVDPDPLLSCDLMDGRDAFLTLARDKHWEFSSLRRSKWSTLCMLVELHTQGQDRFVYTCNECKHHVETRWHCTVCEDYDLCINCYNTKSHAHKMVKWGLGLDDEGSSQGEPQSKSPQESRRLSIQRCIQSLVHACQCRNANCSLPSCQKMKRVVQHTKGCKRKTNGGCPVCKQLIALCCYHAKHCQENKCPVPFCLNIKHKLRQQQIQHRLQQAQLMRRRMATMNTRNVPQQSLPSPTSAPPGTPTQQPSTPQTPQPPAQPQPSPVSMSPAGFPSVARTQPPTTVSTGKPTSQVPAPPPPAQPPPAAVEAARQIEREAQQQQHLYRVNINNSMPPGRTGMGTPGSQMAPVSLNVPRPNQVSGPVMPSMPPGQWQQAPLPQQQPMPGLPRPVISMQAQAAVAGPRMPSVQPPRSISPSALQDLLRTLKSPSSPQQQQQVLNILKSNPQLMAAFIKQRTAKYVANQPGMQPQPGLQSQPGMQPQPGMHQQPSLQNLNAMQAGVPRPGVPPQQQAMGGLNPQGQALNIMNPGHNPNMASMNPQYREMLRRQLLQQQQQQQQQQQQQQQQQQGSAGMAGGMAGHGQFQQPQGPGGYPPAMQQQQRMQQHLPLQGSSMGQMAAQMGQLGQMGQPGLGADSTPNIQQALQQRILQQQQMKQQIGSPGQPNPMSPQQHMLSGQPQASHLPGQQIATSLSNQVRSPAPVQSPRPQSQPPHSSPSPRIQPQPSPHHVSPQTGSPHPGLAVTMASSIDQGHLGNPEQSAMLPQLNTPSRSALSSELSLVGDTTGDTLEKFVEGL

[5] = target: T1, Histone acetyltransferase p300; assay: Induction of p300 degradation in human RS4-11 cells assessed as maximal degradation incubated for 4 hrs by Western blot assay relative to control; format: cell-based
CREB-binding protein [6] = target: T2, CREB-binding protein; assay: Induction of CBP degradation in human RS4-11 cells assessed as maximal degradation incubated for 4 hrs by Western blot assay; format: cell-based
Target sequence in this assay (Q92793 2-2442 limits assumed): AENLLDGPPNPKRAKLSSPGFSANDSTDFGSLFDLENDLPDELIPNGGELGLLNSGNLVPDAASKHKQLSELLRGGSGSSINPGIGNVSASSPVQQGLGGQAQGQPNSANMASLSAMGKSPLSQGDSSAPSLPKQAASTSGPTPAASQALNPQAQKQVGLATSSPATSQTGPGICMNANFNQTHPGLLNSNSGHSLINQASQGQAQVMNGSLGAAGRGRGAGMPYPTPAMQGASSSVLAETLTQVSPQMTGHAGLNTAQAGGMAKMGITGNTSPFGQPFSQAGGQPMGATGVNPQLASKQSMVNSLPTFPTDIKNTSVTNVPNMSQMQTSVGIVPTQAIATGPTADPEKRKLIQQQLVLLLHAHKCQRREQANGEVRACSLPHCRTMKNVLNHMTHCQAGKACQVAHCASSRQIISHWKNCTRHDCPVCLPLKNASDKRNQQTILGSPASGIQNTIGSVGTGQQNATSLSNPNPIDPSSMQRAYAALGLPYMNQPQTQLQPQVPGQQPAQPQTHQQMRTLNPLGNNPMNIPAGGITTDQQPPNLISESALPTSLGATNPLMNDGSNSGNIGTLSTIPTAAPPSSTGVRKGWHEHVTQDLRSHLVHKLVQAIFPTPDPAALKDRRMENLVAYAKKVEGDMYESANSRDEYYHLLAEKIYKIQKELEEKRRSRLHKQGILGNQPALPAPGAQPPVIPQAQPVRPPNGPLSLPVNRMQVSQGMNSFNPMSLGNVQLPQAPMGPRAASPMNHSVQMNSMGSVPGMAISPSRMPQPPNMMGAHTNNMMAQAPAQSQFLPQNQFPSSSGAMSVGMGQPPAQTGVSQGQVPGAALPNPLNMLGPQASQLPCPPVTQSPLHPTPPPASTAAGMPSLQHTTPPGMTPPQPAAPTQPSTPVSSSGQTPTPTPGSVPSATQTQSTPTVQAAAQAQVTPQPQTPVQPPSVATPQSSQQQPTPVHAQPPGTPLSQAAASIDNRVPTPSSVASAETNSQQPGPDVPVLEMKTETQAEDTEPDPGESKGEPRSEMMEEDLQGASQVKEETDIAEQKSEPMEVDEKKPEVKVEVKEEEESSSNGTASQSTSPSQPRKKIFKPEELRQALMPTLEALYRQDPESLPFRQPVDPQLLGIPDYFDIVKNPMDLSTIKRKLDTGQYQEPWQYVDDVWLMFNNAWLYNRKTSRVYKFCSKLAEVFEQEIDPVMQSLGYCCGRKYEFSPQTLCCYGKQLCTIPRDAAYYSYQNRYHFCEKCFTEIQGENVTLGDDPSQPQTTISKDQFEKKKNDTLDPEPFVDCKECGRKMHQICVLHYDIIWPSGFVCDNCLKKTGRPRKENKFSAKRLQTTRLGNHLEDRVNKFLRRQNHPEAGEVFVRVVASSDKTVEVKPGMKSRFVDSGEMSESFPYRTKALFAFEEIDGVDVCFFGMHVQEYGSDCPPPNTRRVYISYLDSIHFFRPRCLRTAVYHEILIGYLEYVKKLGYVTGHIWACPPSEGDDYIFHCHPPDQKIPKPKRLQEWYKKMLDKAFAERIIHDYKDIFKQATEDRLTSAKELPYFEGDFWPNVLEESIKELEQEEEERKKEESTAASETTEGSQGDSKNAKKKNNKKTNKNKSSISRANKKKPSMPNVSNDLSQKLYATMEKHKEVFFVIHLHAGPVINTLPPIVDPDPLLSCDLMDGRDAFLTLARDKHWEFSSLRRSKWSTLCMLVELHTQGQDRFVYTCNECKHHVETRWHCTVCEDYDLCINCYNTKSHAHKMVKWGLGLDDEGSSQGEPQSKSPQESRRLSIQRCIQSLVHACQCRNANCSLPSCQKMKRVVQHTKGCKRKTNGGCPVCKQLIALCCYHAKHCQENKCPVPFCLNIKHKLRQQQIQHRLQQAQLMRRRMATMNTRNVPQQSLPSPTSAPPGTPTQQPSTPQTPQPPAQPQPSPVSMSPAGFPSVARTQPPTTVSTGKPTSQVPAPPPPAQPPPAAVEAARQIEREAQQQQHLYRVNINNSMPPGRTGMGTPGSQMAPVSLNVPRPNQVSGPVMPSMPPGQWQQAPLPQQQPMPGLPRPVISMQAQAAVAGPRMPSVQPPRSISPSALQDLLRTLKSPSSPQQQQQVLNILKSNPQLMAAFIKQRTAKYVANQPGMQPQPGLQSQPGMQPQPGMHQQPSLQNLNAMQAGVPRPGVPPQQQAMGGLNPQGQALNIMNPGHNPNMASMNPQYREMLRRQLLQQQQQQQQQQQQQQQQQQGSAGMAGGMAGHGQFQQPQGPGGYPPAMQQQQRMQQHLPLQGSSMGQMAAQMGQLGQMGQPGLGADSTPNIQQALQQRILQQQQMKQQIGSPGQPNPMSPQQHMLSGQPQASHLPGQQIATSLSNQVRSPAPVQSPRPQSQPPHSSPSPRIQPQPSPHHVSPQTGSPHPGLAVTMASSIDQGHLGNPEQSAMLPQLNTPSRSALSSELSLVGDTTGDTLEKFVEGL

| SMILES | Imax (RS4-11 [1]) [%] | IC50 (RS4-11 [2]) [nM] | EC50 [3] [nM] | EC50 (CREB-binding protein [4]) [nM] | Emax [5] [%] | Emax (CREB-binding protein [6]) [%] | DC50 [3] [nM] |
| --- | --- | --- | --- | --- | --- | --- | --- |
| CC(=O)N1CCc2c(c(-c3cccc4cc(-c5ccc(C(=O)NCCCNc6cccc7c6C(=O)N(C6CCC(=O)NC6=O)C7=O)nc5)ncc34)nn2C2CCOCC2)C1 (stereo not given) | >95 | 0.1 | 0.7 | 1.2 | 90 | 71 |  |
| CC(=O)N1CCc2c(c(-c3cccc4cc(-c5ccc(C(=O)N6CCC(Nc7cccc8c7C(=O)N(C7CCC(=O)NC7=O)C8=O)CC6)nc5)ncc34)nn2C2CCOCC2)C1 (stereo not given) | 70 | 68 |  | 1.8 | 25 | 86 |  |
| CC(=O)N1CCc2c(c(-c3cccc4cc(-c5ccc(C(=O)NC6CCN(c7ccc8c(c7)C(=O)N(C7CCC(=O)NC7=O)C8=O)CC6)nc5)ncc34)nn2C2CCOCC2)C1 (stereo not given) | 83 | 20 | 1.9 | 1 | 99 | 99 |  |
| CC(=O)N1CCc2c(c(-c3cccc4cc(-c5ccc(C(=O)NCCCCCCCCNc6cccc7c6C(=O)N(C6CCC(=O)NC6=O)C7=O)nc5)ncc34)nn2C2CCOCC2)C1 (stereo not given) | 87 | 1.5 | 1.6 | 0.2 | 97 | 99 |  |
| CC(=O)N1CCc2c(c(-c3cccc4cc(-c5ccc(C(=O)NCCCNc6cccc7c6CN(C6CCC(=O)NC6=O)C7=O)nc5)ncc34)nn2C2CCOCC2)C1 (stereo not given) | >95 | 0.1 |  | 0.2 | 95 | 98 | 1.8 |
| CC(=O)N1CCc2c(c(-c3cccc4cc(-c5ccc(C(=O)NCCCCCCCNc6cccc7c6C(=O)N(C6CCC(=O)NC6=O)C7=O)nc5)ncc34)nn2C2CCOCC2)C1 (stereo not given) | 90 | 1.6 | 2.3 | 12 | 87 | 99 |  |
| CC(=O)N1CCc2c(c(-c3cccc4cc(-c5ccc(C(=O)NCCNc6ccc7c(c6)CN(C6CCC(=O)NC6=O)C7=O)nc5)ncc34)nn2C2CCOCC2)C1 (stereo not given) | >95 | 0.1 |  | 1.1 | 73 | 80 | 5.1 |
| CC(=O)N1CCc2c(c(-c3cccc4cc(-c5ccc(C(=O)NCCNc6cccc7c6C(=O)N(C6CCC(=O)NC6=O)C7=O)nc5)ncc34)nn2C2CCOCC2)C1 (stereo not given) | 50 | 196 |  | 1.7 | 37 | 66 |  |
| CC(=O)N1CCc2c(c(-c3cccc4cc(-c5ccc(C(=O)N6CCC7(CC6)CC(Nc6cccc8c6C(=O)N(C6CCC(=O)NC6=O)C8=O)C7)nc5)ncc34)nn2C2CCOCC2)C1 (stereo not given) | 71 | 51 | 9.3 | 1.7 | 51 | 96 |  |
| C[C@H](N(Cc1ccc(F)cc1)C(=O)CN1C(=O)O[C@@]2(CCc3cc(NC(=O)CCCCCCCCCCCNc4ccc5c(c4)C(=O)N(C4CCC(=O)NC4=O)C5=O)ccc32)C1=O)C(F)(F)F (stereo not given in full) | 99 | 91 |  |  |  |  |  |
| CNC(=O)N1CCc2c(c(N3CCCc4cc(-c5cnn(C)c5)c(C(F)F)cc43)nn2C2CCN(C(=O)CCOCCOCCOCCOCCNc3ccc4c(c3)C(=O)N(C3CCC(=O)NC3=O)C4=O)CC2)C1 (stereo not given) | 89 | 4.8 |  |  |  |  |  |
| CC(=O)N1CCc2c(c(-c3cccc4cc(-c5ccc(C(=O)N6CCC7(CCC(Nc8cccc9c8C(=O)N(C8CCC(=O)NC8=O)C9=O)CC7)CC6)nc5)ncc34)nn2C2CCOCC2)C1 (stereo not given) | 65 | 70 |  |  | 10 | 21 |  |
| CC(=O)N1CCc2c(c(-c3cccc4cc(-c5ccc(C(=O)N6CCC(C7CN(c8cccc9c8C(=O)N(C8CCC(=O)NC8=O)C9=O)C7)CC6)nc5)ncc34)nn2C2CCOCC2)C1 (stereo not given) | >95 | 2.4 |  | 3.7 | 40 | 85 |  |
| CC(=O)N1CCc2c(c(-c3cccc4cc(-c5ccc(C(=O)N6CCC(C7CCN(c8cccc9c8C(=O)N(C8CCC(=O)NC8=O)C9=O)CC7)CC6)nc5)ncc34)nn2C2CCOCC2)C1 (stereo not given) | 88 | 24 |  | 40 | 10 | 58 |  |
